Each compound was assayed against T1, Epidermal growth factor receptor (Homo sapiens, UniProt P00533).
T1 sequence (P00533 whole entry): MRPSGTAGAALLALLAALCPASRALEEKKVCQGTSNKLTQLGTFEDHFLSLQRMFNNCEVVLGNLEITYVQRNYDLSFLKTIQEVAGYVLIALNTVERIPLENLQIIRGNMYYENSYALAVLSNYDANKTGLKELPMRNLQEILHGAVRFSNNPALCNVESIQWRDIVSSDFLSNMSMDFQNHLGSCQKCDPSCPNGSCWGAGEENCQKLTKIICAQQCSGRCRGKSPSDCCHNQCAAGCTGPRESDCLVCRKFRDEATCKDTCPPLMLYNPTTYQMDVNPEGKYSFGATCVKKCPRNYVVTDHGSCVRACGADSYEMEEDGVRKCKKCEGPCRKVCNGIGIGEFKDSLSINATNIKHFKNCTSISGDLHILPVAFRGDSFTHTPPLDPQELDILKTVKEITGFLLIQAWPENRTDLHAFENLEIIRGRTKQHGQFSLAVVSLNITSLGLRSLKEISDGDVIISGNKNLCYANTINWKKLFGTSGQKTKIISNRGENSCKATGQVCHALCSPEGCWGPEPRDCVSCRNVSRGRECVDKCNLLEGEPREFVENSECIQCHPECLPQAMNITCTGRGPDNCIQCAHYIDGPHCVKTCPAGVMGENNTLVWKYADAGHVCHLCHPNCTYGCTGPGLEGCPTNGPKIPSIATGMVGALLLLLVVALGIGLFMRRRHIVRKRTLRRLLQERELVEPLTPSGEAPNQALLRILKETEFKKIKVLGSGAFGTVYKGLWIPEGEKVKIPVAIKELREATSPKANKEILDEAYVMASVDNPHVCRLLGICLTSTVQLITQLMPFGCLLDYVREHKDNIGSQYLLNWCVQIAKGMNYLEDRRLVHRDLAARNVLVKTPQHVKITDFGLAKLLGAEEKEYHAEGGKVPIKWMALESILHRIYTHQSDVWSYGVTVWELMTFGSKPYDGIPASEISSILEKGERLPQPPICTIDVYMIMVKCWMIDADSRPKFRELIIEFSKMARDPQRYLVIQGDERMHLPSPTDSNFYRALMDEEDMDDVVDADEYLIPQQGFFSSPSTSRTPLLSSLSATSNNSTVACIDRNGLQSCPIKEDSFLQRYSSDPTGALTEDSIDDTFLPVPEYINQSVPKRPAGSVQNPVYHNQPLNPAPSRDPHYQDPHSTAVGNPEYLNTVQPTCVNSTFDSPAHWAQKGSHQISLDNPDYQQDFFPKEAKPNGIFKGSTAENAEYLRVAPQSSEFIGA

SMILES	IC50	Ki
COc1ccc(O)c(/C=C/NC=O)c1	> 31.1 µM	
O=CN/C=C/c1ccc(O)cc1	> 61.3 µM	
NC(=O)c1oc2cc(O)cc(O)c2c(=O)c1-c1ccc(O)cc1	31.9 µM	
O=CN/C=C/c1cc(Br)ccc1O	> 24.8 µM	
N#C/C(=C/c1cc(Cc2ccccc2)c(O)c(Cc2ccccc2)c1)C(N)=O	0.6 µM	
CC(C)C[C@H](NC(=O)[C@H](CCCNC(=N)N)NC(=O)[C@@H](N)CCCNC(=N)N)C(=O)N[C@@H](CCC(=O)O)C(=O)N[C@@H](CCC(=O)O)C(=O)N[C@@H](CCC(=O)O)C(=O)N[C@@H](CCC(=O)O)C(=O)N[C@@H](CCC(=O)O)C(=O)N[C@@H](C)C(=O)N[C@@H](Cc1c(F)c(F)c(O)c(F)c1F)C(=O)NCC(=O)O (stereo in doubt; 187D)		20 µM
CCOc1cc(/C=C(\C#N)C(N)=O)cc(CSc2ccc(O)cc2)c1O	3 µM	

What follows are compounds tested against Tyrosine-protein kinase Lck (Homo sapiens, UniProt P06239).
Chain of Tyrosine-protein kinase Lck (P06239 whole entry): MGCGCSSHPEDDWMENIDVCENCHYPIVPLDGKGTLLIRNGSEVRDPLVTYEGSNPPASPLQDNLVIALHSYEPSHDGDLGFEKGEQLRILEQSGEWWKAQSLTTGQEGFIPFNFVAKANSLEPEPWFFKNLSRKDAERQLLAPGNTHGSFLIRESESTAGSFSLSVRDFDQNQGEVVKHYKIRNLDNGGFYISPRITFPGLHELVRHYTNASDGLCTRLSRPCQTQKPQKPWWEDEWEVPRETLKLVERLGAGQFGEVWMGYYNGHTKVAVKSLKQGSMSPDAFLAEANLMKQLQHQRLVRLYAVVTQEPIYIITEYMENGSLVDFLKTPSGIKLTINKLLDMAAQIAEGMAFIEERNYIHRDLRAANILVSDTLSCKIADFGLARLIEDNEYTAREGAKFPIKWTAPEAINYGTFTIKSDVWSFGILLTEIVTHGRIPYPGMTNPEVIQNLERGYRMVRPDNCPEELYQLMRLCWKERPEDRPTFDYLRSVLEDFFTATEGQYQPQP

SMILES	IC50
O=c1cc(-c2ccccc2)oc2cc(O)ccc12 [7-HYDROXYFLAVONE]	336 µM
Nc1ccc(-c2cc(=O)c3c(O)c(O)ccc3o2)cc1	7 µM
Nc1ccc(-c2cc(=O)c3cc(O)ccc3o2)cc1	1 µM
Nc1ccc(-c2cc(=O)c3ccc(O)cc3o2)cc1	100 µM
COc1ccc(/C=C/c2cccnc2)cc1OC	200 µM
COc1ccc2oc(-c3cc(OC)c(OC)c(OC)c3)cc(=O)c2c1	> 2340 µM
COc1cc(-c2cc(=O)c3ccc(O)c(O)c3o2)cc(OC)c1O[Si](C)(C)C(C)(C)C	> 1800 µM
O=c1c(O)c(-c2ccc(O)c(O)c2)oc2cc(O)cc(O)c12 [QUERCETIN]	132 µM
COc1cc(-c2cc(=O)c3ccccc3o2)cc(OC)c1O	26.8 µM
O=c1cc(-c2cccc(O)c2)oc2cc(O)ccc12	39.3 µM
COc1cc(-c2cc(=O)c3cc(O)ccc3o2)cc(OC)c1O	127 µM
O=c1cc(-c2ccccc2)oc2c(O)c(O)ccc12 [7,8-DIHYDROXYFLAVONE]	315 µM
O=c1cc(-c2cccc(O)c2)oc2cccc(O)c12	315 µM
O=c1cc(-c2cccc(O)c2)oc2ccc(O)cc12	157 µM
O=c1cc(-c2ccc(O)cc2)oc2cc(O)cc(O)c12 [APIGENIN]	14.8 µM
COc1cc(O)c2c(=O)cc(-c3ccc(O)cc3)oc2c1 [GENKWANIN]	281 µM
COc1cc(-c2cc(=O)c3ccc(OC(C)=O)c(OC(C)=O)c3o2)cc(OC)c1O[Si](C)(C)C(C)(C)C	> 1510 µM
COc1cc(-c2cc(=O)c3ccc(OC(C)=O)cc3o2)cc(OC)c1O	> 2250 µM
O=c1c(O)c(-c2cc(O)cc(O)c2)oc2cc(O)cc(O)c12	99.3 µM
COc1cc(-c2cc(=O)c3ccc(O)c(O)c3o2)cc(OC)c1OC	290 µM
O=C1c2ccccc2C(=O)c2cc(O)ccc21 [2-HYDROXYANTHRAQUINONE]	89.2 µM
CC(C)(C)[Si](C)(C)Oc1ccc(-c2cc(=O)c3ccc(O)cc3o2)cc1	109 µM
COc1cc(-c2cc(=O)c3ccc(O)c(O)c3o2)cc(OC)c1O	121 µM
O=c1c(O)c(-c2ccccc2)oc2cc(O)cc(O)c12 [GALANGIN]	296 µM

SMILES	IC50
CC(=O)Oc1ccc2c(c1)C(=O)c1ccccc1C2=O	> 3000 µM
Cc1cc(O)c2c(c1)C(=O)c1cc(O[C@@H]3O[C@H](CO)[C@@H](O)[C@H](O)[C@H]3O)cc(O)c1C2=O	> 1850 µM
COc1ccc2c(=O)cc(-c3cc(OC)c(OC)c(OC)c3)oc2c1	> 2340 µM
COc1cc(O)c2c(c1)C(=O)c1cc(C)cc(O)c1C2=O [PHYSCION]	> 2810 µM
COc1cc(-c2cc(=O)c3ccc(OC)c(OC)c3o2)cc(OC)c1OC	> 2150 µM
O=c1cc(-c2ccc(OCc3ccccc3)cc2)oc2cc(O)ccc12	2030 µM
CC(C)(C)[Si](C)(C)Oc1ccc(-c2cc(=O)c3cc(O)ccc3o2)cc1	109 µM
O=c1cc(-c2cccc(O)c2)oc2c(O)c(O)ccc12	185 µM
O=c1cc(-c2ccc(O)cc2)oc2cccc(O)c12	15.7 µM
COc1cc(-c2cc(=O)c3ccc(O)cc3o2)cc(OC)c1OC	> 2440 µM
COc1cc(-c2cc(=O)c3ccc(O)cc3o2)cc(OC)c1O	1270 µM
COc1cc(-c2cc(=O)c3cc(O)ccc3o2)cc(OC)c1O[Si](C)(C)C(C)(C)C	467 µM
O=C1c2ccccc2C(=O)c2c(O)cccc21 [1-HYDROXYANTHRAQUINONE]	> 3570 µM
COc1cc(-c2cc(=O)c3ccc(O)cc3o2)cc(OC)c1O[Si](C)(C)C(C)(C)C	163 µM
O=c1cc(-c2ccc(O)cc2)oc2cc(O)ccc12	787 µM
COc1cc(-c2oc3cc(O)cc(O)c3c(=O)c2O)cc(OC)c1O [SYRINGETIN]	57.8 µM
O=c1cc(-c2ccccc2)oc2cc(O)cc(O)c12 [CHRYSIN]	19.7 µM
COc1ccc(/C=N/Nc2ccccc2)cc1OC	70 µM
O=c1cc(-c2ccc(OCc3ccccc3)cc2)oc2cccc(O)c12	> 2320 µM
COc1cc(-c2cc(=O)c3cc(O)ccc3o2)cc(OC)c1OC	60.9 µM
COc1cc(-c2cc(=O)c3ccc(OC(C)=O)cc3o2)cc(OC)c1O[Si](C)(C)C(C)(C)C	> 1700 µM
O=c1cc(-c2ccc(O)c(O)c2)oc2cc(O)cc(O)c12 [LUTEOLIN]	34.9 µM
O=c1cc(-c2ccc(O)cc2)oc2ccc(O)cc12	11.8 µM

Target: T1, Epidermal growth factor receptor
Remark: another data set of the same source
Description: Inhibition of EGFR in human A431 cells

SMILES	IC50
O=c1c(O)c(-c2ccc(O)cc2)oc2cc(O)cc(O)c12 [KAEMPFEROL]	10.5 µM
O=C(O)c1cc(N(Cc2ccccc2O)Cc2ccccc2O)ccc1O [LAVENDUSTIN B]	1.37 µM
O=C(O)c1cc(N(Cc2ccccc2O)Cc2cc(O)ccc2O)ccc1O [LAVENDUSTIN A]	0.0105 µM
O=c1c(-c2ccc(O)cc2)coc2cc(O[C@@H]3O[C@H](CO)[C@@H](O)[C@H](O)[C@H]3O)cc(O)c12 [GENISTIN]	> 231 µM
COc1ccc(-c2coc3cc(O)cc(O)c3c2=O)cc1 [BIOCHANIN]	106 µM
O=c1cc(-c2ccccc2)oc2ccccc12 [FLAVONE]	225 µM
O=[N+]([O-])/C=C/c1ccc(O)c(O)c1	9 µM
N#CC(C#N)=C(C#N)c1cc(O)c(O)c(O)c1	3 µM
N#C/C(=C/c1ccc(O)c(O)c1)C(=O)NCCCCc1ccccc1	0.1 µM
N#C/C(=C\c1ccc(O)c(O)c1)C(=O)c1ccc(O)c(O)c1	0.4 µM
C/C(=C\c1ccc(O)c(O)c1)[N+](=O)[O-]	9 µM
N#C/C(=C\c1cc(O)ccc1O)C(=O)O	20 µM
N#CC(C#N)=C(C#N)c1cc(O)cc(O)c1	10 µM
O=c1cc(-c2ccc(O)cc2)oc2cc(O)cc(O)c12 [APIGENIN]	111 µM
N#C/C(=C\c1ccc(O)c(O)c1)C(=O)O	30 µM
O=c1c(-c2ccc(O)cc2)coc2cc(O)ccc12 [DAIDZEIN]	> 393 µM
COc1ccc(-c2cc(=O)c3c(O)cc(O)cc3o2)cc1 [ACACETIN]	141 µM
Cc1ccc(C(=O)/C(C#N)=C/c2ccc(O)c(O)c2)cc1	0.9 µM
N#C/C(=C\c1ccc(O)c(O)c1)C(=O)NCCc1ccccc1	0.9 µM
N#C/C(=C\c1ccc(O)cc1)C(=O)O [alpha-CYANO-4-HYDROXYCINNAMIC ACID]	200 µM
N#C/C(=C\c1ccc(O)c(O)c1)C(=O)c1ccc(F)cc1	0.6 µM
N#CC(C#N)=C(C#N)c1ccc(O)cc1	600 µM

SMILES	IC50
O=P(O)(O)C(O)c1ccc2ccccc2c1 (stereo not drawn)	200 µM
N#CC(C#N)=C(N)/C(C#N)=C/c1ccc(O)c(O)c1	3 µM
N#CC(C#N)=C(N)/C(C#N)=C/c1ccc(O)cc1	0.1 µM
COc1cc(/C=C/[N+](=O)[O-])ccc1O	8 µM
N#CC(C#N)=C(C#N)c1ccc(C=O)cc1	600 µM
N#CC(C#N)=C(O)c1cc(O)c(O)c(O)c1	10 µM
N#CC(C#N)=C(C#N)c1ccc(O)c(O)c1	10 µM
O=C(O)c1ccc(O)cc1 [PARABEN]	72.4 µM
N#CC(C#N)=C(O)c1ccc(O)cc1	500 µM
O=C(O)c1cc(N(Cc2cc(O)ccc2O)Cc2cc(O)ccc2O)ccc1O	0.0252 µM
O=C(O)/C=C/c1ccc(O)c(O)c1 [CAFFEIC ACID]	1000 µM
COc1c(O)cc(O)c2c(=O)c(-c3ccc(O)cc3)coc12 [PSI-TECTORIGENIN]	0.333 µM
COc1cc(C(C#N)=C(C#N)C#N)cc(OC)c1O	900 µM
COc1cc(O)c2c(=O)c(-c3ccc(O)cc3)coc2c1 [PRUNETIN]	14.1 µM
N#C/C(=C\c1ccc(O)c(O)c1)C(=O)c1ccc([N+](=O)[O-])cc1	2 µM
O=C(O)c1ccc(O)c(N(Cc2ccccc2O)Cc2cc(O)ccc2O)c1	0.524 µM
N#C/C(=C/c1ccc(O)c(O)c1)C(=O)Nc1ccccc1Cl	10 µM
COc1cc(C(C#N)=C(C#N)C#N)cc(O)c1O	6 µM
N#CC(C#N)=C(C#N)c1cccc(O)c1	400 µM
N#C/C(=C/c1ccc(O)c(O)c1)C(=O)NC1CCCCC1	2 µM
N#C/C(=C\c1ccc(O)c(O)c1)C(=O)c1ccccc1Cl	2 µM
N#C/C(=C\c1ccc(O)c(O)c1)C(=O)c1ccccc1	1 µM

Source: ChEMBL document CHEMBL1150213, “Protein-tyrosine kinase inhibition: mechanism-based discovery of antitumor agents” (J Nat Prod, 1992)
